{"source": "patent US20080199449A1", "about": "“Methods and Compositions for Use in Treating Vascular Diseases and Conditions” (The General Hospital Corporation, priority 2005, published 2008)", "key": {"[1]": {"system": "gridlock phenotype (atresia of the proximal aorta in grl^m145 mutants)", "assay": "Suppression of the gridlock phenotype (restoration of trunk and tail circulation) in grl^m145 mutant embryos", "type": "in vivo, zebrafish", "protocol": "Screening for suppressors of the gridlock phenotype. The screen was performed as previous described with modifications (Peterson et al., Nature Biotechnology 22:595-599, 2004). Briefly, pairs of homozygous grl^m145 zebrafish were mated, and fertilized eggs were arrayed in 96-well plates containing E3 embryo buffer. At the 6-somite stage, small molecules from the DiverSet E library (Chembridge) were added to each well, yielding a final concentration of 2.5 μM. Embryos were incubated at 28.5° C. for 48 hrs. Circulation to the tail was assessed visually using a dissecting microscope.\nFluorescent microangiography. Fluorescence microangiography was performed as previously described (Weinstein et al., Nature Medicine 1:1143-1147, 1995)."}, "[2]": {"system": "gridlock phenotype (atresia of the proximal aorta in grl^m145 mutants)", "conditions": "whole zebrafish embryos; Peterson et al., Nature Biotechnology 22:595-599, 2004; cited from earlier work"}, "[3]": {"system": "dorsal aorta and cardinal veins", "assay": "Artery-vein morphology in embryos expressing GFP in endothelial cells (fli-1 promoter)", "type": "in vivo, zebrafish", "conditions": "for Vascular defects at higher doses: doses higher than the 1- to 5 μM suppressing range"}, "zebrafish embryos": {"system": "zebrafish embryos", "assay": "Gross embryonic morphology and lethality after compound exposure", "type": "in vivo"}}, "note": "“Also recorded” adds a separate entry of the source."}
{"smiles": "COc1ccc(SCCc2ccncc2)cc1.Cl", "note": "[GS4012]", "values": [{"measurement": "Suppression of the gridlock phenotype, single treatment at sub-effective dose", "setting": "[1]; GS4898 0.75 μM, LY294002 3 μM, wortmannin 0.075 μM, GS4012 0.7 μg/mL (FIG. 1F)", "value": "does not suppress"}, {"measurement": "Suppression of the gridlock phenotype (tail circulation)", "setting": "[1]; homozygous grl^m145 mutant zebrafish embryos", "value": "suppressed"}, {"measurement": "Suppression of the vascular defect in gridlock mutant embryos (earlier screen)", "setting": "[2]", "value": "suppresses the vascular defect in gridlock mutant embryos"}]}
{"smiles": "O=c1cc(N2CCOCC2)oc2c(-c3ccccc3)cccc12", "note": "[LY294002]", "values": [{"measurement": "Vascular defects at higher doses", "setting": "[3]", "value": "severe vascular defects"}]}
{"smiles": "N#C/C(=C(/N)Sc1ccc(N)cc1)c1ccccc1C(F)(F)F", "note": "[SL327]", "values": [{"measurement": "Gross embryonic morphology, treatment starting at 12-hpf", "setting": "zebrafish embryos; 36-hpf embryos, GS4898 10 μM, SL327 60 μM (FIG. 5)", "value": "moderately deformed tail curvature, but otherwise grossly intact head organogenesis, somitogenesis, and yolk extension"}, {"measurement": "Embryonic lethality and gross defects, treatment at stages earlier than 12-hpf", "setting": "zebrafish embryos; treatment of embryos at earlier stages (FIG. 5)", "value": "high degree of embryonic lethality and variable gross morphologic defects"}]}
{"smiles": "N#CC(=C(/N)Sc1ccccc1N)/C(C#N)=C(\\N)Sc1ccccc1N", "note": "[U0126]", "values": [{"measurement": "Effect on aorta (artery formation)", "setting": "[3]; 48-hpf fli-1 GFP embryos, GS4898 15 μM, U0126 100 μM, SL327 (FIG. 3E-G)", "value": "either loss or reduction of aorta; also recorded: the aorta is greatly reduced"}, {"measurement": "Effect on vein (posterior/common cardinal vein, vein formation)", "setting": "[3]; 48-hpf fli-1 GFP embryos, GS4898 15 μM, U0126 100 μM, SL327 (FIG. 3F, G)", "value": "expansion of the common cardinal vein; also recorded: enlarged"}]}
{"smiles": "COC[C@H]1OC(=O)c2coc3c2[C@@]1(C)C1=C(C3=O)[C@@H]2CCC(=O)[C@@]2(C)C[C@H]1OC(C)=O", "note": "[wortmannin]", "values": [{"measurement": "Vascular defects at higher doses", "setting": "[3]", "value": "severe vascular defects"}]}
